Laboratory results as given in BigSolDB 2.1.

O=C(O)c1ccccc1
solubility (mole fraction)
Conditions | 283.15 K | 288.15 K | 293.15 K | 298.15 K | 303.15 K | 308.15 K | 313.15 K | 318.15 K | 323.15 K | 328.15 K
in 2-pentanone | 0.163 | 0.18 | 0.196 | 0.215 | 0.234 | 0.256 | 0.279 | 0.315 | 0.349 | 0.388
in diacetone alcohol | 0.234 | 0.251 | 0.269 | 0.287 | 0.306 | 0.315 | 0.336 | 0.367 | 0.396 | 0.426
in isooctane | 0.002 | 0.003 | 0.005 | 0.007 | 0.01 | 0.013 | 0.018 | 0.023 | 0.031 | 0.04
in methyl acetate | 0.125 | 0.152 | 0.175 | 0.198 | 0.213 | 0.237 | 0.26 | 0.282 | 0.318 | 0.348
in n-pentyl acetate | 0.091 | 0.112 | 0.133 | 0.159 | 0.179 | 0.198 | 0.226 | 0.252 | 0.282 | 0.316
in tributyl phosphate | 0.492 | 0.507 | 0.522 | 0.53 | 0.543 | 0.553 | 0.563 | 0.581 | 0.6 | 0.631
